From patent US11312705B2, “Heteroaryl[4,3-C]pyrimidine-5-amine derivative, preparation method therefor, and medical uses thereof” (Jiangsu Hengrui Medicine Co., Ltd., priority 2017, dated 2022)

What was measured:
[1] = target: adenosine A2b receptor (A2bR) (Homo sapiens (Human), UniProt P29275); experiment: Inhibition of adenosine A2b receptor cAMP signaling pathway (HTRF cAMP, CHO-K1/A2bR cells); type: cell-based; conditions: Table 3; for IC50: CHO-K1/A2bR cells, ethyl carbazole 1 μM, cAMP HTRF
Method in brief: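 CHO-K1 cells expressing human A2bR were preincubated with compound (0-100000 nM final) for 30 min at room temperature in HEPES/BSA buffer with rolipram and adenosine deaminase. They were then stimulated with 1 μM […] for 30 min. Intracellular cAMP was measured by HTRF after 1 h detection.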

[2] = Brain permeability in mice (plasma/brain concentration plus equilibrium dialysis); type: in vivo; conditions: mouse, not told, po; female C57 mice, 20 mg/kg intragastric, 0.5 h after administration; read-out: Blood-brain permeability index (Kp-unbound)
Protocol: The brain permeability of the compounds of the present invention in mice was determined by the following experimental method:
Four female C57 mice were maintained on a 12 hours light/12 hours dark cycle, in a constant temperature of 24±3° C. and a humidity of 50-60%, and had free access to food and water. The compounds were administered intragastrically to the mice after fasting overnight. The administration dosage was 20 mg/kg. The drug administration group was sacrificed after blood collection at 0.5 h after drug administration (collected blood volume: 0.5 ml). The blood sample was stored in heparinized tubes, and centrifuged for 10 minutes at 3500 rpm to separate the plasma, which was marked as plasma 1 and stored at −80° C. […]
The equilibrium dialysis tube of RED Device Inserts was inserted into a 96-well plate. […] The chromatographic peak area ratios of the total drug (plasma chamber) and the free drug (buffer chamber) to the internal standard were determined directly by the LC/MS/MS method established above respectively, and the free percent (fuplasma%) was calculated. […]
5.1 The drug concentrations in plasma 1 and brain tissue 1 of mice 0.5 h after drug administration were determined by the established LC/MS/MS method respectively, which were the total concentration (Ctotal, p and Ctotal, b); […]

adenosine A2b receptor (A2bR), sequence (P29275 whole entry): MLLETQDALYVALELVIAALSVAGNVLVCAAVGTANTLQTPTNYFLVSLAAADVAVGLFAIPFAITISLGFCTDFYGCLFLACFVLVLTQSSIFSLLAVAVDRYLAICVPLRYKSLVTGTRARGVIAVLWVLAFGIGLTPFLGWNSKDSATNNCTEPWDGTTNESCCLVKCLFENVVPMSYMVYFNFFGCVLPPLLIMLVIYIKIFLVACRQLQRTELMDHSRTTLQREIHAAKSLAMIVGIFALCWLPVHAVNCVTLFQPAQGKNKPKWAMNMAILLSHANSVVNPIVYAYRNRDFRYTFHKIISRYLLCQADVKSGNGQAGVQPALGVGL

SMILES | IC50 [1] | Kp at 0.5 h [2] | IC50 ratio (A2bR/A2aR) ([1]; selectivity A2bR over A2aR)
Cc1cc(-c2c(-c3ccc(F)cc3F)nc(N)n3cnnc23)cc(C(F)(F)F)n1 [Example 18, 7-(2,4-Difluorophenyl)-8-(2-methyl-6-(trifluoromethyl)pyridin-4-yl)-[1,2,4]triazolo[4,3-c]pyrimidin-5-amine] | 793 nM | 0.01 | 
Cc1cc(-c2c(-c3ccc(F)cc3F)nc(N)n3cnnc23)cc(C(F)F)n1 [Example 20, 8-(2-(Difluoromethyl)-6-methylpyridin-4-yl)-7-(2,4-difluorophenyl)-[1,2,4]triazolo[4,3-c]pyrimidin-5-amine] | 522 nM | 0.015 | 224
